Series [1] has as its system Gaeumannomyces graminis. Kind of series: Gaeumannomyces graminis / liquid culture (take-all of cereals). The series is classed as cell-based. Particulars: 20 ppm, growth inhibition photometrically 4-5 days after application, vs untreated control. As for the experimental part:
Gaeumannomyces Graminis/Liquid Culture (Take-All of Cereals)
Mycelial fragments of the fungus from cryogenic storage were directly mixed into nutrient broth (PDB potato dextrose broth). After placing a (DMSO) solution of test compound into a microtiter plate (96-well format), the nutrient broth containing the fungal spores iss added. The test plates are incubated at 24° C. and the inhibition of growth is determined photometrically 4-5 days after application.

Broadly, the melting point is the temperature of the solid-liquid transition. In turn, `O=C(Nc1cnc2c(F)cccc2c1)C(CC#CC1CC1)CC(F)(F)F` (stereo not shown) [Compound E-2, 5-cyclopropyl-N-(8-fluoro-3-quinolyl)-2-(2,2,2-trifluoroethyl)pent-4-ynamide] registered a melting point of 182 to 184 °C. Consider `C#CCC(C)(CC(C)C)C(=O)Nc1cnc2c(F)cccc2c1` (stereo not shown) [Compound E-3, N-(8-fluoro-3-quinolyl)-2-isobutyl-2-methyl-pent-4-ynamide], for which the melting point was in the range of 125 to 127 °C. As for `CC#CCC(C)(CC(C)C)C(=O)Nc1cnc2c(F)cccc2c1` (stereo not shown) [Compound E-5, N-(8-fluoro-3-quinolyl)-2-isobutyl-2-methyl-hex-4-ynamide], the melting point was in the range of 139 to 140 °C. In addition, the “control of Gaeumannomyces graminis” value in series [1] is on record as “at least 80%”.

The values are drawn from patent US11241011B2, “Microbiocidal quinoline (thio)carboxamide derivatives” (SYNGENTA PARTICIPATIONS AG, priority 2017, dated 2022).
